In patent US9278068B2, “Vesicle compositions” (Sensulin LLC, priority 2011, dated 2016):

System: HeLa cells
Assay: MTT assay for cytotoxicity
Details: 40 nM, 2 h
Experimental: The cytotoxicity of the boronic acid derivatives from Table 1 was studied by MTT assay. 150,000 HeLa cells were plated in 96 well plates on the night before the experiments. On the day of experiments, the cells were treated with the boronic acid derivatives at three different concentrations (40 nM, 80 nM, and 160 nM) for 2 h. At the end of the incubation, MTT assays (In-Vitro toxicology MTT based assay kit, Sigma Aldrich, MO) were performed according to the manufacturer's protocol.

Structure (SMILES) | MTT (% Cell Survival) 40 nM
CC(C)[Si](C(C)C)(C(C)C)n1ccc(B(O)O)c1 [1-(triisopropylsilyl)pyrrol-E-3-boronic acid] | 72.92%
O=C(Cl)c1ccc(B2OB(c3ccc(C(=O)Cl)cc3)OB(c3ccc(C(=O)Cl)cc3)O2)cc1 [4-chlorocarbonylphenylboronic anhydride] | 114.54%
OB(O)c1ccsc1 [3-thienylboronic acid] | 90.42%
CC(C)(C)Oc1ncc(B(O)O)c(OC(C)(C)C)n1 [2,4-di-tert-butoxypyrimidin-5-ylboronic acid] | 100.46%
O=Cc1ccc(B(O)O)o1 [5-formyl-2-furanboronic acid] | 77.18%
O=Cc1cc(B(O)O)cs1 [5-formylthiophene-3-boronic acid] | 86.87%
CN(C)S(=O)(=O)c1ccccc1B(O)O [2-(N,N-dimethylsulphamoyl)benzene-boronic acid] | 74.92%
CC(C)(C)OC(=O)n1cccc1B(O)O [N-boc-2-pyrroleboronic acid] | 60.6873%
NC(=O)c1ccc(B(O)O)cc1 [4-aminocarbonylphenylboronic acid] | 86.57%

Same assay, conditions: 80 nM, 2 h

Structure (SMILES) | MTT (% Cell Survival) 80 nM
CC(C)[Si](C(C)C)(C(C)C)n1ccc(B(O)O)c1 [1-(triisopropylsilyl)pyrrol-E-3-boronic acid] | 65.92%
O=C(Cl)c1ccc(B2OB(c3ccc(C(=O)Cl)cc3)OB(c3ccc(C(=O)Cl)cc3)O2)cc1 [4-chlorocarbonylphenylboronic anhydride] | 107.21%
OB(O)c1ccsc1 [3-thienylboronic acid] | 80.00%
CC(C)(C)Oc1ncc(B(O)O)c(OC(C)(C)C)n1 [2,4-di-tert-butoxypyrimidin-5-ylboronic acid] | 90.60%
O=Cc1ccc(B(O)O)o1 [5-formyl-2-furanboronic acid] | 94.08%
O=Cc1cc(B(O)O)cs1 [5-formylthiophene-3-boronic acid] | 87.03%
CN(C)S(=O)(=O)c1ccccc1B(O)O [2-(N,N-dimethylsulphamoyl)benzene-boronic acid] | 76.38%
CC(C)(C)OC(=O)n1cccc1B(O)O [N-boc-2-pyrroleboronic acid] | 51.264%
NC(=O)c1ccc(B(O)O)cc1 [4-aminocarbonylphenylboronic acid] | 97.67%

Same assay, conditions: 160 nM, 2 h

Structure (SMILES) | MTT (% Cell Survival) 160 nM
CC(C)[Si](C(C)C)(C(C)C)n1ccc(B(O)O)c1 [1-(triisopropylsilyl)pyrrol-E-3-boronic acid] | 56.94%
O=C(Cl)c1ccc(B2OB(c3ccc(C(=O)Cl)cc3)OB(c3ccc(C(=O)Cl)cc3)O2)cc1 [4-chlorocarbonylphenylboronic anhydride] | 79.46%
OB(O)c1ccsc1 [3-thienylboronic acid] | 49.85%
CC(C)(C)Oc1ncc(B(O)O)c(OC(C)(C)C)n1 [2,4-di-tert-butoxypyrimidin-5-ylboronic acid] | 71.81%
O=Cc1ccc(B(O)O)o1 [5-formyl-2-furanboronic acid] | 50.14%
O=Cc1cc(B(O)O)cs1 [5-formylthiophene-3-boronic acid] | 73.80%
CN(C)S(=O)(=O)c1ccccc1B(O)O [2-(N,N-dimethylsulphamoyl)benzene-boronic acid] | 47.32%
CC(C)(C)OC(=O)n1cccc1B(O)O [N-boc-2-pyrroleboronic acid] | 39.41%
NC(=O)c1ccc(B(O)O)cc1 [4-aminocarbonylphenylboronic acid] | 57.28%

System: not listed separately
Assay: Binding assay: competition with ConA-FITC on glucose-terminated magnetic beads
Details: relative to ConA; 2.4 μM ConA-FITC, boronic acid 2.5 μM to 20 μM, PBS pH 7.2
Experimental: The binding affinity of boronic acid derivatives to glucose was determined by competition assay using ConcanavalinA (ConA) as the competitive standard, and varying concentrations of the boronic acid derivatives. Carboxy-terminated magnetic beads were activated by suspending the beads in 100 mM 2-(N-morpholino)ethanesulfonic acid (MES) buffer (pH 4.5). Glucosamine (100 mg/mL) was conjugated to the activated magnetic beads using carbodiimide coupling with 1-ethyl-3-(3-dimethylaminopropyl)carbodiimide (EDC) as a crosslinker. The conjugation reaction was carried out in a 96 well plate. The reaction was run for 24 h. The beads were separated by placing the microplate on a magnetic separator and were washed thoroughly with PBS at pH 7.2 to remove unbound glucose, excess EDC, and N-hydroxysulfosuccinimide (Sulfo-NHS).
The glucose terminated beads were co-incubated for 1 h with 2.4 μM ConA (a known binder of carbohydrates) fluorescently tagged with fluorescein isothiocyanate (ConA-FITC), and titrated with concentrations ranging from 2.5 μM to 20 μM of each boronic acid derivative tested. The following controls were used: (A) carboxy-terminated magnetic beads (not conjugated to glucose) were treated with ConA-FITC to determine non-specific binding; and (B) glucose conjugated beads were treated with a high concentration of non-fluorescent ConA to determine maximal binding.
The wells were washed three times with PBS at pH 7.2 to remove unbound boronic acid derivatives and FITC-ConA. The beads were re-suspended in PBS and stirred for 15 min at rt before measuring FITC fluorescence (excitation: 495 nm, top emission: 520 nm; 6 flashes per well; average of n=3 wells in a Flexstation 11^384 microplate reader to quantify the amount of glucose bound to the boronic acids). The fluorescence intensity was measured and used as an indication of the amount of ConA bound to the surface of the beads, or [ConAs]. The ConA-sugar interaction was expected to be inhibited by the boronic acid derivatives, which can bind the sugar molecules and displace the bound ConA-FITC, thereby causing a decrease in fluorescence intensity of the mixture.
The binding constant of the boronic acid derivatives was calculated from the fluorescence intensity. The reduction of fluorescence intensity is related to [ConAs] by Equation 2.
[formula] The relationship between [ConAs] and the amount of boronic acid [BA] is given by Equation 3.
[formula] Simple rearrangement yields Equation 4, from which the ratio of the two equilibrium constants (KConA/KBA) can be derived.
[formula] • The concentration of sugar sites (S1) can be calculated from the intercept of a plot of 1/[ConAs] vs 1/[BA].

Structure (SMILES) | Sugar Binding Affinity Log(KaBA/KaConA)
O=C(Cl)c1ccc(B2OB(c3ccc(C(=O)Cl)cc3)OB(c3ccc(C(=O)Cl)cc3)O2)cc1 [4-chlorocarbonylphenylboronic anhydride] | −2.08
CC(C)(C)Oc1ncc(B(O)O)c(OC(C)(C)C)n1 [2,4-di-tert-butoxypyrimidin-5-ylboronic acid] | 0.008
O=Cc1cc(B(O)O)cs1 [5-formylthiophene-3-boronic acid] | −1.24
NC(=O)c1ccc(B(O)O)cc1 [4-aminocarbonylphenylboronic acid] | −1.03

System: NF-κB
Assay: NF-κB assay for inflammation (nuclear translocation of NF-κB, immunocytochemistry, PCC)
Details: HeLa cells, 40 nM, 2 h; PCC between nuclear and cytoplasmic fraction of NF-κB
Experimental: 15,000 HeLa cells were plated in 96 well plates the night before the experiments. On the day of the experiments, the cells were treated with the boronic acids (Table 1, below) at three different concentrations (40 nM, 80 nM, and 160 nM) for 2 h. At the end of the incubation, cells were washed with phosphate buffered saline (PBS) and were fixed in 4% paraformaldehyde for 15 min and permeablized with 0.01% Triton X-100 in PBS for 10 min. The cells were washed with PBS three times. Nonspecific sites were blocked with 5% bovine serum albumin (BSA) in PBS and incubated with the Anti-NF-κB for 1 h, followed by incubation with fluorescein isothiocyanate (FITC)-labeled secondary antibody. After washing the cells at the end of the incubation, the cells were treated with 4′,6-diamidino-2-phenylindole (DAPI) for 1 min and kept at 4° C. until further analysis. Images of the cells were acquired with a Beckman-Coulter 100 automated high-throughput microscope system and analyzed using Cytseer software (Vala Sciences, CA). The co-localization of NF-κB was quantified by measuring the PCC between the nuclear and cytoplasmic fraction of the NF-κB molecule. The PCC is a measure of the overlap between the pixel intensities of the nuclear and NF-κB images of the same cell. The PCC values can range from −1 to 1. […] A negative correlation (negative PCC value) indicates an absence of nuclear translocation.

Structure (SMILES) | Inflammation (PCC) 40 nM
CC(C)[Si](C(C)C)(C(C)C)n1ccc(B(O)O)c1 [1-(triisopropylsilyl)pyrrol-E-3-boronic acid] | −0.0781
O=C(Cl)c1ccc(B2OB(c3ccc(C(=O)Cl)cc3)OB(c3ccc(C(=O)Cl)cc3)O2)cc1 [4-chlorocarbonylphenylboronic anhydride] | −0.0664
OB(O)c1ccsc1 [3-thienylboronic acid] | −0.0062
CC(C)(C)Oc1ncc(B(O)O)c(OC(C)(C)C)n1 [2,4-di-tert-butoxypyrimidin-5-ylboronic acid] | −0.0888
O=Cc1ccc(B(O)O)o1 [5-formyl-2-furanboronic acid] | 0.00989
O=Cc1cc(B(O)O)cs1 [5-formylthiophene-3-boronic acid] | −0.0359
CN(C)S(=O)(=O)c1ccccc1B(O)O [2-(N,N-dimethylsulphamoyl)benzene-boronic acid] | −0.1529
CC(C)(C)OC(=O)n1cccc1B(O)O [N-boc-2-pyrroleboronic acid] | −0.0675
NC(=O)c1ccc(B(O)O)cc1 [4-aminocarbonylphenylboronic acid] | −0.0838

Same assay, conditions: HeLa cells, 80 nM, 2 h; PCC between nuclear and cytoplasmic fraction of NF-κB

Structure (SMILES) | Inflammation (PCC) 80 nM
CC(C)[Si](C(C)C)(C(C)C)n1ccc(B(O)O)c1 [1-(triisopropylsilyl)pyrrol-E-3-boronic acid] | 0.00445
O=C(Cl)c1ccc(B2OB(c3ccc(C(=O)Cl)cc3)OB(c3ccc(C(=O)Cl)cc3)O2)cc1 [4-chlorocarbonylphenylboronic anhydride] | −0.0012
OB(O)c1ccsc1 [3-thienylboronic acid] | 0.1457
CC(C)(C)Oc1ncc(B(O)O)c(OC(C)(C)C)n1 [2,4-di-tert-butoxypyrimidin-5-ylboronic acid] | 0.03106
O=Cc1ccc(B(O)O)o1 [5-formyl-2-furanboronic acid] | −0.0122
O=Cc1cc(B(O)O)cs1 [5-formylthiophene-3-boronic acid] | 0.00225
CN(C)S(=O)(=O)c1ccccc1B(O)O [2-(N,N-dimethylsulphamoyl)benzene-boronic acid] | −0.0404
CC(C)(C)OC(=O)n1cccc1B(O)O [N-boc-2-pyrroleboronic acid] | 0.05743
NC(=O)c1ccc(B(O)O)cc1 [4-aminocarbonylphenylboronic acid] | 0.01211

Same assay, conditions: HeLa cells, 160 nM, 2 h; PCC between nuclear and cytoplasmic fraction of NF-κB

Structure (SMILES) | Inflammation (PCC) 160 nM
CC(C)[Si](C(C)C)(C(C)C)n1ccc(B(O)O)c1 [1-(triisopropylsilyl)pyrrol-E-3-boronic acid] | 0.169.
O=C(Cl)c1ccc(B2OB(c3ccc(C(=O)Cl)cc3)OB(c3ccc(C(=O)Cl)cc3)O2)cc1 [4-chlorocarbonylphenylboronic anhydride] | 0.09826
OB(O)c1ccsc1 [3-thienylboronic acid] | 0.05963
CC(C)(C)Oc1ncc(B(O)O)c(OC(C)(C)C)n1 [2,4-di-tert-butoxypyrimidin-5-ylboronic acid] | 0.1726
O=Cc1ccc(B(O)O)o1 [5-formyl-2-furanboronic acid] | 0.1132
O=Cc1cc(B(O)O)cs1 [5-formylthiophene-3-boronic acid] | 0.193
CN(C)S(=O)(=O)c1ccccc1B(O)O [2-(N,N-dimethylsulphamoyl)benzene-boronic acid] | 0.03422
CC(C)(C)OC(=O)n1cccc1B(O)O [N-boc-2-pyrroleboronic acid] | 0.1837
NC(=O)c1ccc(B(O)O)cc1 [4-aminocarbonylphenylboronic acid] | 0

Same assay, conditions: HeLa cells; boronic acids 80 nM, 2 hrs; LPS positive control

Structure (SMILES) | nuclear or cytoplasmic localization of NF-κB (FIG. 4 images)
CC(C)(C)Oc1ncc(B(O)O)c(OC(C)(C)C)n1 [2,4-di-tert-butoxypyrimidin-5-ylboronic acid] | predominantly cytoplasmic NF-κB
